What all share (assay type): cell-based
Data set [1] relates to 22Rv1 cells. Put plainly: MTT cell viability assay, 22Rv1 cells. The following applies: 3 days. Here is the method:
Cells were treated in the manner indicated below for the specified period of time. MTT assay was performed as described in Amin et al., Mol. Cancer Ther., 13:341-52 (2014).
(§1) To determine the effects of SH-I-125 on prostate cancer cell growth, 22Rv1 cells were treated with SH-I-125 and cell viability was measured after a period of 3 days. […]. In comparison, non-tumorigenic primary prostate epithelial cells (PrEC) retained 80% viability in the presence of a similar range of doses of SH-I-125, showing that tumorigenic cells are more susceptible to the growth inhibitory properties of SH-I-125 compared to non-tumorigenic cells (FIG. 8B). […] Staurosporine was used as a positive control for cell death induction in live and dead assays (FIG. 9C).

Data set [2] concerns estrogen response element. The data set can be described thus: Estrogen response element (ERE) luciferase reporter in 22Rv1 cells. The following applies: 1 μM, 24 hours. Here is the method:
22Rv1 cells were transfected with ERE promoter-luciferase reporter construct and Renilla luciferase plasmids (pRL-TK-Luc) and treated with 1 μM of SH-I-125 for 24 hours. Promoter activity was determined after normalization with Renilla luciferase activity. Columns, mean of three independent experiments with quadruplicate samples; bars, SEM.

The subject of data set [3] is AR and AR-V7. The data set can be described thus: Immunofluorescence staining of AR and AR-V7 in 22Rv1 cells. The settings on record: SH-I-125 1 μM, 24 hours. The method, then: […]. Androgen receptor (AR) and PSA expression levels were assessed.
(§2) Immunofluorescence staining was performed as described in Amin et al., Mol. Cancer Ther., 13:341-52 (2014).
22Rv1 cells represent a commonly observed castration-resistant phenotype, including androgen-independent growth and the expression of AR splice variants, such as AR-V7. […]. […] […].

In data set [4] the target is T1, AR NTD-Gal4DBD fusion protein (Homo sapiens, UniProt P10275).
T1 construct: expressed in transfected cells; host or cells: VCaP
The data set can be described thus: AR NTD-Gal4DBD / Gal4UAS-luciferase reporter in VCaP cells, forskolin-induced. The settings on record: forskolin 50 μM, 24 hours. Here is the method: VCaP cells were co-transfected with AR-NTD-Gal4DBD expression vector and Gal4UAS-TATA-luciferase reporter construct and optionally treated with forskolin (FSK) (50 μM) for 24 hours.
The N-terminal domain of the AR (AR NTD) is known to be its transactivation domain, essential for ligand-independent AR activation.

For data set [5], the system named is VP16-Gal4DBD fusion protein. The data set can be described thus: VP16-Gal4DBD / UAS-luc reporter, negative control. The following applies: SH-I-125 1 μM, 24 hours. The method, then:
22Rv1 cells were co-transfected with VP16 activation domain-Gal4DBD fusion protein and Gal4UAS-TATA-luciferase reporter and treated with SH-I-125 (1 μM) for 24 hours. Luciferase activity was measured and normalized with Renilla luciferase. Columns, mean of three independent experiments with quadruplicate samples; bars, SEM.
The N-terminal domain of the AR (AR NTD) is known to be its transactivation domain, essential for ligand-independent AR activation. Mahanine is able to inhibit AR activation induced by ligand-independent mechanisms such as forskolin and interleukin-6, which activate the AR NTD. […] As a negative control, a constitutively active VP16-Gal4DBD fusion protein and the UAS-luc reporter were co-expressed in […]. […] […].

Data set [6] concerns PrEC. Put plainly: Live and dead cell staining, PrEC cells. The following applies: SH-I-125 5 μM, 3 days. The method, then:
Live and dead cells were determined using a Cell Viability/Cytotoxicity Assay kit (Biotium Inc.; Hayward, Calif.).
as §1

Data set [7] relates to 22Rv1 cells. Put plainly: Cleaved caspase-3 and cleaved PARP by Western blot and immunofluorescence, 22Rv1 cells. The following applies: SH-I-125 1 μM, three days. Here is the method: 22Rv1 cells were treated with SH-I-125 (1 μM) for one, two, or three days, and caspase 3/7 activity was measured using Caspase-Glo 3/7 substrates. […] Data represent mean of three independent experiments with quadruplicate samples; bars, SEM. ***, p value <0.001 determined by ANOVA.
The presence of cleaved caspase-3 and cleaved PARP were determined. The cells were counterstained with 4′,6-diamidino-2-phenylindole (DAPI).
Western blotting was performed as described in Amin et al., Mol. Cancer Ther., 13:341-52 (2014). The following antibodies were used: Androgen receptor (N-20; Santa Cruz Biotechnology; Dallas, Tex.), PSA (A0562; Dako; Carpinteria, Calif.), β-actin (SC-47778; Santa Cruz Biotechnology), AR-V7 (AG10008; Precision Antibody; Columbia, Md.), cleaved PARP (9541; Cell Signaling Technologies, Danvers, Mass.), and cleaved caspase-3 (9664; Cell Signaling Technologies, Danvers, Mass.).
It was determined whether caspase activity and apoptosis were induced in 22Rv1 cells upon SH-I-125 treatment. […] Staurosporine was used as a positive control for apoptosis induction (FIG. 10B).

Data set [8] relates to AR and AR-V7. The data set can be described thus: Quantitative RT-PCR of AR and AR-V7 mRNA in 22Rv1 cells. The following applies: SH-I-125 1 μM, 1-3 days, normalized to GAPDH. Here is the method: FIG. 12D is a graph showing the mRNA expression of AR and AR-V7 after treating 22Rv1 cells with SH-I-125 (1 μM) for 24 and 72 hrs. The AR and AR-V7 expression levels were assessed by qRTPCR and normalized to GAPDH expression levels.
Quantitative RT-PCR was performed using the protocol and the primers as described in Amin et al., Mol. Cancer Ther., 13:341-52 (2014).
To establish a mechanism by which SH-I-125 caused a decline in AR and AR-V7 levels, the relative expression of AR and AR-V7 in 22Rv1 cells that had been treated with SH-I-125 for a period of 1-3 days was measured. […] To determine whether proteasomal mechanisms are responsible for the decline in AR and AR-V7 levels, 22Rv1 cells were treated with 5 μM SH-I-125 for a period of 48 hours in the presence of proteasome inhibitor, MG132.

For data set [9], the system named is AR. Put plainly: VCaP-MDVR-ARE-luc luciferase reporter assay. The settings on record: VCaP-MDVR-ARE-luc cells, range of doses, 24 hours. Here is the method:
[…]. Luciferase activity was measured and plotted as a percentage of control. Data represent the mean of three independent experiments with quadruplicate samples; bars, SEM. ***, p value <0.001 determined by ANOVA.
VCaP-MDVR and 22Rv1-MDVR stably expressing ARE-luciferase construct (VCaP-MDVR-ARE-luc and 22Rv1-MDVR-ARE-luc) were generated as described above in the Materials and Methods section. […].
In general terms: Reporter assays use an easily measured gene product as a stand-in for the process of interest.

In data set [10] the test system is AR. The data set can be described thus: Immunofluorescence staining of AR and PSA in VCaP-MDVR cells. The settings on record: DHT 1 nM, MDV3100 10 μM or SH-I-125 1 μM, 24 hours. The method, then:
AR and PSA expression levels were assessed.
as §2

T1 sequence (P10275 with tags, fused parts or gaps limits assumed): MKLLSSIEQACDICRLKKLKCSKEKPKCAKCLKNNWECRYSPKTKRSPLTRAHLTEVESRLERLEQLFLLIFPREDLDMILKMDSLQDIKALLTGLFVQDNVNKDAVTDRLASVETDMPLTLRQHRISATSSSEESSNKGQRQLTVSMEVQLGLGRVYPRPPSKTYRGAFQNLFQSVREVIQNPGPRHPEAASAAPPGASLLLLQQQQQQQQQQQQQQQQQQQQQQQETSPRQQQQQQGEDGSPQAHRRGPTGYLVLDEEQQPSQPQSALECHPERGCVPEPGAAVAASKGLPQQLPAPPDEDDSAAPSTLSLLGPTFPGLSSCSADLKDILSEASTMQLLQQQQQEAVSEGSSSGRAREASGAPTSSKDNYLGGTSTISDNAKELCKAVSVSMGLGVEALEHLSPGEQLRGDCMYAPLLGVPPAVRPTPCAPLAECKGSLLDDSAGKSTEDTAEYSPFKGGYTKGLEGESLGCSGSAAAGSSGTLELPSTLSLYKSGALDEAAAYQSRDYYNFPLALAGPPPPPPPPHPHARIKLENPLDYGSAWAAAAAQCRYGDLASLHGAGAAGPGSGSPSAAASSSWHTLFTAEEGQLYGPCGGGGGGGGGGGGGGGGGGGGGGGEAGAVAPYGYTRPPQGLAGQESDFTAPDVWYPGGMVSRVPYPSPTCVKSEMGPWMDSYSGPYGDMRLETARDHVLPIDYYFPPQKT

As for `COc1ccc2c(c1)[nH]c1c(C)c(OS(=O)(=O)c3cccc4ccccc34)ccc12` [SH-I-125, 7-methoxy-1-methyl-9H-carbazol-2-yl naphthalene-1-sulfonate], the “potency relative to natural-derived and synthetically-derived mahanine in preventing growth” value in data set [1] (MTT) was “ten-fold”. Besides, the viability at 1 µM in data set [1] (Homo sapiens, 72 h, dose of 1 μM, read-out: cell viability, of control) was 50%. Moreover, the ERE promoter-luciferase activity result in data set [2] is recorded as “unaffected”. Moreover, the “nuclear localization of AR and AR-V7” value in data set [3] is “decreased the nuclear localization of AR and AR-V7”. The “forskolin-induced AR activation (AR NTD-Gal4DBD luciferase)” value in data set [4] is given as “significantly inhibited forskolin-induced AR activation”. In addition, in data set [5], the VP16-Gal4DBD luciferase activity result is reported as “did not affect luciferase activity”. Besides, the “live and dead cell staining” value in data set [6] is “mostly unaffected”. Further, the “cleaved caspase-3 and cleavage of PARP” value in data set [7] was “presence of cleaved caspase-3 and accompanied by the cleavage of PARP”. Further, in data set [8], the “AR and AR-V7 message (mRNA) levels” value was “did not affect the message levels”. In addition, in data set [9], the “inhibitory effect on AR activity (luciferase)” value is reported as “retained its inhibitory effect”. Moreover, in data set [10], the “AR expression / nuclear localization” value was “decreased AR nuclear localization”; the PSA expression entry was “decreased AR nuclear localization and PSA expression”.

A word on the viability: it is a read-out of living cells in per cent, often relative to untreated cells.

The values are drawn from US10487056B2, “Small molecule androgen receptor inhibitors and methods of use thereof” (GEORGETOWN UNIVERSITY, priority 2015, dated 2019).
